We go through two compounds from patent publication US20070059359A1, “Immediate-release and high-drug-load pharmaceutical formulations of non-micronised (4-chlorophenyl)[4-(4-pyridylmethyl)phthalazin-1-yl] and salts thereof” (priority 2005, published 2007).

Series [1] is described as follows: Hazard classification, internal workspace limit. As to conditions: classified as being hazardous.
The subject of series [2] is VEGFR kinases. As to conditions: not dependent on a specific ligand; cited from earlier work.

Structures are written as SMILES.

Turning to `Clc1ccc(Nc2nnc(Cc3ccncc3)c3ccccc23)cc1` [pynasunate, (4-chlorophenyl)[4-(4-pyridylmethyl)-phthalazin-1-yl]ammonium hydrogen succinate], the internal workspace limit in series [1] is 0.1 mg/m^3.

`Clc1ccc(Nc2nnc(Cc3ccncc3)c3ccccc23)cc1` [(4-chlorophenyl)[4-(4-pyridylmethyl)-phthalazin-1-yl]]: the “inhibition of VEGFR kinases” value in series [2] is recorded as “inhibitor of all three VEGFR kinases”.
